Results taken from patent US12679822B2, “Alkenyl pyrimidine compound, preparation method therefor, and application thereof” (Hongyun Biotech Co., Ltd., priority 2020, dated 2026).

How the values were obtained:
Assay type in all cases: cell-based
[1] = target: BaF3 cell lines stably transfected with kinase EGFR Del/T790M/C797S (Homo sapiens, UniProt P00533, T790M/C797S, cells depend on it, form not given); test: Growth inhibition of BaF3 cell line stably transfected with kinase EGFR Del/T790M/C797S (MTS); conditions: 48 h, read-out: growth inhibitory activity IC50, Del/T790M/C797S
Method: (§1) Biological Activity Assay: Growth Inhibitory Activity of Compounds on Cell Lines Stably Transfected with Kinase
(§2) The activity of compounds against various mutants of kinase EGFR was evaluated by their effect of inhibiting growth of BaF3 cell lines stably transfected with kinase. The specific test method was given as follows:
(§3) 1) Culture medium: DMEM (Dulbecco's modified eagle medium) or RPMI 1640 (containing 10% fetal bovine serum, 100 μg/mL ampicillin, 100 μg/mL streptomycin).
(§4) 2) Reagent: MTS reaction solution (containing 2 mg/mL of MTS [3-(4,5-di methylthiazol-2-yl)-5-(3-carboxymethoxyphenyl)-2-(4-sulfophenyl)-2H-tetrazolium, inner Salt]; 100 μg/mL of PES (phenazine […])).
(§5) 3) Compound test: cells were incubated into a 96-well culture plate, the volume of cytosol was 90 μL, and then 10 μL of the compound at each gradient concentration was added. That is, the highest concentration was 10 μM, which was diluted stepwise by ⅓, and 8 concentration points were set in total; 0.1% DMSO (dimethyl sulfoxide) was contained in the system. The cell plate with uniformly mixed compound was cultured in a cell culture incubator (37° C.; 5% […]) for 48 h, then 20 μL of MTS reaction solution was added, uniformly mixed and incubated in the cell culture incubator (37° C.; 5% CO2) for 1-4 h; OD values at 490 nm were measured by a microplate reader (VARIOSKAN FLASH, Thermo). Two parallels were set in each group of experiments, with 0.1% (a final concentration) DMSO as a negative control, and a culture medium without cells and compounds as a blank control. The cell growth inhibition rate was calculated by the following formula: Cell growth inhibition rate %=1−(ODexperimental group−ODblank group)/(ODnegative group−ODblank group)×100%.
(§6) 4) IC50 calculation: The semi-inhibitory concentration of the compounds acting on cells was calculated using GradPad Prism 5 software according to the measured cell growth inhibition rate.

[2] = target: BaF3 cell lines stably transfected with kinase EGFR L858R (Homo sapiens, UniProt P00533, L858R, cells depend on it); test: Growth inhibition of BaF3 cell line stably transfected with kinase EGFR L858R (MTS); conditions: 48 h, read-out: growth inhibitory activity IC50, L858R
Method: as §1, §2, §3, §4, §5, §6

[3] = target: BaF3 cell lines stably transfected with kinase EGFR Del/T790M (Homo sapiens, UniProt P00533, T790M, cells depend on it, form not given); test: Growth inhibition of BaF3 cell line stably transfected with kinase EGFR Del/T790M (MTS); conditions: 48 h, read-out: growth inhibitory activity IC50, Del/T790M
Method: as §1, §2, §3, §4, §5, §6

[4] = target: BaF3 cell lines stably transfected with kinase EGFR Del (Homo sapiens, UniProt P00533, cells depend on it, form not given); test: Growth inhibition of BaF3 cell line stably transfected with kinase EGFR Del (MTS); conditions: 48 h, read-out: growth inhibitory activity IC50, Del
Method: as §1, §2, §3, §4, §5, §6

[5] = target: BaF3 cell lines stably transfected with kinase EGFR L858R/T790M (Homo sapiens, UniProt P00533, T790M/L858R, cells depend on it); test: Growth inhibition of BaF3 cell line stably transfected with kinase EGFR L858R/T790M (MTS); conditions: 48 h, read-out: growth inhibitory activity IC50, L858R/T790M
Method: as §1, §2, §3, §4, §5, §6

[6] = target: BaF3 cell lines stably transfected with kinase EGFR L858R/T790M/C797S (Homo sapiens, UniProt P00533, T790M/C797S/L858R, cells depend on it); test: Growth inhibition of BaF3 cell line stably transfected with kinase EGFR L858R/T790M/C797S (MTS); conditions: 48 h, read-out: growth inhibitory activity IC50, L858R/T790M/C797S
Method: as §1, §2, §3, §4, §5, §6

Chain of BaF3 cell lines stably transfected with kinase EGFR L858R/T790M (P00533 whole entry T790M/L858R): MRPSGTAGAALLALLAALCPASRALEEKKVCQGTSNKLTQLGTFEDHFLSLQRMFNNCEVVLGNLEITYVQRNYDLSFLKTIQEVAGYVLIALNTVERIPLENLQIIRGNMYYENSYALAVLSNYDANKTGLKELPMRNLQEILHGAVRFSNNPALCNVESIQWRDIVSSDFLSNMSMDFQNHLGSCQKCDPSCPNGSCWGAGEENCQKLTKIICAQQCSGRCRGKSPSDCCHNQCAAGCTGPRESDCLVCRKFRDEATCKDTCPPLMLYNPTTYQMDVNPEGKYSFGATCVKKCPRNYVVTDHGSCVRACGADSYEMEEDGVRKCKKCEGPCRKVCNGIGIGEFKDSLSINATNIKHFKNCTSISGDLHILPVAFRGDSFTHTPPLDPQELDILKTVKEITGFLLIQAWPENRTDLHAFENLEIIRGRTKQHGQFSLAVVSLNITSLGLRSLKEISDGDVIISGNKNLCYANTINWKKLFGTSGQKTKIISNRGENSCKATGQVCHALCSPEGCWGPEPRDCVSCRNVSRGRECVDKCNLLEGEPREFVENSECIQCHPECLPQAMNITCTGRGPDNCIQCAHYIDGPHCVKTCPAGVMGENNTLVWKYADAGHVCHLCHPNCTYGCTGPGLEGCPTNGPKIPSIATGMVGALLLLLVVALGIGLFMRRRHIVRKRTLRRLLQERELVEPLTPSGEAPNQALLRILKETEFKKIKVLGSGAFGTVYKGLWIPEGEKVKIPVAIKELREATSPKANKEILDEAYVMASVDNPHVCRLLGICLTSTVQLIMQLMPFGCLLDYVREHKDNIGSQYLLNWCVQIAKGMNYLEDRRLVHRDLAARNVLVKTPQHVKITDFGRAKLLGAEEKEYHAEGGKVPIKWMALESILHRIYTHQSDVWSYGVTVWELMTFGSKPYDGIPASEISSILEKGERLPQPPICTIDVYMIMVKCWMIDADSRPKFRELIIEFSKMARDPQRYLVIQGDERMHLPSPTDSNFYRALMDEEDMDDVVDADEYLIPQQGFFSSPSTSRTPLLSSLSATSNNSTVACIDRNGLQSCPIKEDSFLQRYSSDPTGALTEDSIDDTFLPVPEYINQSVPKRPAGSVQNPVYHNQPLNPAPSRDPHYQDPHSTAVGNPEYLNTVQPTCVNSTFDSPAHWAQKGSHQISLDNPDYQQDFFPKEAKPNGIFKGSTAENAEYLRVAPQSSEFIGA
Chain of BaF3 cell lines stably transfected with kinase EGFR Del/T790M (P00533 with tags, fused parts or gaps DEL746-750/T790M, form open): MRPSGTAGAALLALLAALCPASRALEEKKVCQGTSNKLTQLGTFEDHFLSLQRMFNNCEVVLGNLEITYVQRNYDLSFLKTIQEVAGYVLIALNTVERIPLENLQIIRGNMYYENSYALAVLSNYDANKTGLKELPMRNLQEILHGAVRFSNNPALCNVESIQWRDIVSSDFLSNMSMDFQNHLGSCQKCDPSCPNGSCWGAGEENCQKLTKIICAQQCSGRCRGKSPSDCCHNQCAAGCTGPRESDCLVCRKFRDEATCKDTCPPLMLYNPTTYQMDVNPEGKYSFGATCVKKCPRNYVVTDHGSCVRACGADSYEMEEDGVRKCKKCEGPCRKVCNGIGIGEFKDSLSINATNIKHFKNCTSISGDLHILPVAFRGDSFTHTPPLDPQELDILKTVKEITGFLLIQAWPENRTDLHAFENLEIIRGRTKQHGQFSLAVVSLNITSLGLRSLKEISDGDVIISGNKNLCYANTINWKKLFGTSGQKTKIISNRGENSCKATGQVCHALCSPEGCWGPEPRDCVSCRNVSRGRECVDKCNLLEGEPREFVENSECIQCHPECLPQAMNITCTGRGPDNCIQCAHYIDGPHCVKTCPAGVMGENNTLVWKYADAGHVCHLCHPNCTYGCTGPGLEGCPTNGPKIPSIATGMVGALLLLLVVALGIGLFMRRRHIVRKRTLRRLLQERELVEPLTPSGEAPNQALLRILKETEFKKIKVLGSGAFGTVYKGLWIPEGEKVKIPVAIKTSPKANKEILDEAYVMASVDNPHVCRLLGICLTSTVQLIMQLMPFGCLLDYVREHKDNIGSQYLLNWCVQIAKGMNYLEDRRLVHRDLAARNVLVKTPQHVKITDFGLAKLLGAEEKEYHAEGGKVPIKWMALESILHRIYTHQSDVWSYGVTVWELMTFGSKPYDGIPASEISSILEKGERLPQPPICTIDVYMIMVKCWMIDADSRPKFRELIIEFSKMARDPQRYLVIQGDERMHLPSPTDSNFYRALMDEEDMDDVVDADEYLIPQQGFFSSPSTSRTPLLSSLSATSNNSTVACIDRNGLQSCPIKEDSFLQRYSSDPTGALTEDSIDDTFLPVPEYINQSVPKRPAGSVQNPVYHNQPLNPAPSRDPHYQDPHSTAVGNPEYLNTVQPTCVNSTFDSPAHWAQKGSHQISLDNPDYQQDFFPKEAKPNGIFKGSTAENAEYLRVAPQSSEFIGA
Chain of BaF3 cell lines stably transfected with kinase EGFR Del (P00533 with tags, fused parts or gaps DEL746-750): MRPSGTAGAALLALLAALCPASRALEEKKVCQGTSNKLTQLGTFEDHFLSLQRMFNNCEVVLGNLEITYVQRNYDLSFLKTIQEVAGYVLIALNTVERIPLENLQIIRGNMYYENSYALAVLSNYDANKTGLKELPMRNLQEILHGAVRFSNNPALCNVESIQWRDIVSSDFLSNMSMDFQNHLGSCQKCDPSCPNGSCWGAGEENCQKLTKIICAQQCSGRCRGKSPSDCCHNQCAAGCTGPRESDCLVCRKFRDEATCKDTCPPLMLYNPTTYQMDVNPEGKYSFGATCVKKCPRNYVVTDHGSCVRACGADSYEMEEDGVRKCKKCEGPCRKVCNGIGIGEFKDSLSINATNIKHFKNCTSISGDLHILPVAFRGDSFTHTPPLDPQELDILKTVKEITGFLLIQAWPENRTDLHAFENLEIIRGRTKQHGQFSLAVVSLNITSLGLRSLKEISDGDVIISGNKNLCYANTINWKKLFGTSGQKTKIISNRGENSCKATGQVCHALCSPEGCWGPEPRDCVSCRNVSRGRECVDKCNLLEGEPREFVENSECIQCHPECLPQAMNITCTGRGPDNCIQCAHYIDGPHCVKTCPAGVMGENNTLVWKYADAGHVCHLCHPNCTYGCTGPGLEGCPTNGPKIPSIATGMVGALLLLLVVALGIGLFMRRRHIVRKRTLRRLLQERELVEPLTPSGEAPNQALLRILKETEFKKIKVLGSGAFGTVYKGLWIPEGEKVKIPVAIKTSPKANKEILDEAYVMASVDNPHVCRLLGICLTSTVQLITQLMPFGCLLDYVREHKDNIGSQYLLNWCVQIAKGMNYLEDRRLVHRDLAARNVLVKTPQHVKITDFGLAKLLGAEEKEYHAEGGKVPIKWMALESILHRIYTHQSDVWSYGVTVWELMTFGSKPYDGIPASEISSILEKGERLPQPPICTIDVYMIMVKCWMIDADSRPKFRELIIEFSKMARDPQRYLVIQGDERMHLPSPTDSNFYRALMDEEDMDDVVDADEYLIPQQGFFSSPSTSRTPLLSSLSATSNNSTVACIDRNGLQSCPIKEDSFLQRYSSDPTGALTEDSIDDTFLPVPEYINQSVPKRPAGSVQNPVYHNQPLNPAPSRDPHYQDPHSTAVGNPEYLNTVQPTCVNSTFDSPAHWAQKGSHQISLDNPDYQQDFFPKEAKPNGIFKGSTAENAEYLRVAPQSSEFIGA
Chain of BaF3 cell lines stably transfected with kinase EGFR L858R (P00533 whole entry L858R): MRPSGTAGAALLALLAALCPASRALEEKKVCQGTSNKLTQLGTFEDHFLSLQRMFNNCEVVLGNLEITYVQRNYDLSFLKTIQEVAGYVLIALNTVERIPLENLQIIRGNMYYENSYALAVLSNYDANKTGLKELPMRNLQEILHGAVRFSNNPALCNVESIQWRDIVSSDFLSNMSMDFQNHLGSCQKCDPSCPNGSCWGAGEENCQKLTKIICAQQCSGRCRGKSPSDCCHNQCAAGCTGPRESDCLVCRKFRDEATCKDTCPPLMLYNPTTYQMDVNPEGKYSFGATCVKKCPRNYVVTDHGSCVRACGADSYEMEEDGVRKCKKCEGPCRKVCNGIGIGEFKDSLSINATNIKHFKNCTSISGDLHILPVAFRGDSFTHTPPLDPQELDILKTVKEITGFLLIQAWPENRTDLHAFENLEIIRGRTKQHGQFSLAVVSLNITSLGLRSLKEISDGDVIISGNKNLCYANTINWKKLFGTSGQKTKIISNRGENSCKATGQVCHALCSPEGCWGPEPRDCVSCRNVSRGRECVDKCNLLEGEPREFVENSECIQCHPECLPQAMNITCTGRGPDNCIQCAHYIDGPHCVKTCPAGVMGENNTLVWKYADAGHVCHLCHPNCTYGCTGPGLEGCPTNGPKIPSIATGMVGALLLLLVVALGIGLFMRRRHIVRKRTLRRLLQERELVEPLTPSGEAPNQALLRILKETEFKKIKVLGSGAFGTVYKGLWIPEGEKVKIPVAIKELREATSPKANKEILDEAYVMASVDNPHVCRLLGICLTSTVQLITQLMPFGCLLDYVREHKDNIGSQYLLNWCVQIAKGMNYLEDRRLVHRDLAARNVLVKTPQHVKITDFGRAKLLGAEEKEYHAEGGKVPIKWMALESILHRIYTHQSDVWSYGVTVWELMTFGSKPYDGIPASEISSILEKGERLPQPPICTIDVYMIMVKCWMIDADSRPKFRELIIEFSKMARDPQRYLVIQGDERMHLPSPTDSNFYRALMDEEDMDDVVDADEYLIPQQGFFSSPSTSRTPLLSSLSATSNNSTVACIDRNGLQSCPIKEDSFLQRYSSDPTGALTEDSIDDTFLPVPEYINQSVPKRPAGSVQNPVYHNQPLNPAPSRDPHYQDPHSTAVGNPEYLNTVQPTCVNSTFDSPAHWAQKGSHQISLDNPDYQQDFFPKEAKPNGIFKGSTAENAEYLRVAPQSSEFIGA

GI50 [1] [nM] | GI50 [2] [nM] | GI50 [3] [nM] | GI50 [4] [nM] | GI50 [5] [nM] | GI50 [6] [nM] | SMILES
500 to 2500 | 500 to 2500 | 500 to 2500 | 500 to 2500 | 50 to 500 | 500 to 2500 | C=Cc1cnc(Nc2ccc(N3CCC(N4CCN(C)CC4)CC3)cc2OC)nc1Nc1ccc2nccnc2c1S(=O)(=O)NC [IV-1]
≤ 50 | ≤ 50 | ≤ 50 | ≤ 50 | ≤ 50 | ≤ 50 | C=Cc1cnc(Nc2cc(C)c(N3CCC(N4CCN(C)CC4)CC3)cc2OC)nc1Nc1ccc2nccnc2c1P(C)(C)=O [Compound I-9]
50 to 500 | 50 to 500 | 500 to 2500 | 50 to 500 | 500 to 2500 | 50 to 500 | C=Cc1cnc(Nc2cn(CC)nc2C)nc1Nc1ccc2nccnc2c1N(C)S(C)(=O)=O [II-68]
50 to 500 | ≤ 50 | ≤ 50 | ≤ 50 | 50 to 500 | ≤ 50 | C=Cc1cnc(Nc2cc(C3CC3)c(N3CCC(N4CCN(C)CC4)CC3)cc2OC)nc1Nc1ccc2nccnc2c1NS(C)(=O)=O [II-36]
50 to 500 | 500 to 2500 | 500 to 2500 | 500 to 2500 | 50 to 500 | 50 to 500 | C=Cc1cnc(Nc2cc(CC)c(NCCO)cc2OC)nc1Nc1ccc2nccnc2c1N(C)S(C)(=O)=O [II-49]
50 to 500 | ≤ 50 | ≤ 50 | ≤ 50 | 50 to 500 | 50 to 500 | C=Cc1cnc(Nc2cc(CC)c(N3CCC(N4CCN(C)CC4)CC3)cc2OC)nc1Nc1ccc2nccnc2c1NS(C)(=O)=O [II-32]
50 to 500 | ≤ 50 | 500 to 2500 | ≤ 50 | 50 to 500 | 50 to 500 | CCc1cc(Nc2ncc(C=C(C)C)c(Nc3ccc4nccnc4c3P(C)(C)=O)n2)c(OC)cc1N1CCC(N2CCN(C)CC2)CC1 [Compound I-10]
50 to 500 | 50 to 500 | 50 to 500 | 50 to 500 | 50 to 500 | 50 to 500 | C=Cc1cnc(Nc2cc(CC)c(N3CCC(N4CCN(C)CC4)CC3)cc2OC)nc1Nc1ccc2nccnc2c1S(=O)(=O)C(C)C [III-6]
500 to 2500 | 50 to 500 | 50 to 500 | 50 to 500 | 50 to 500 | 50 to 500 | C=Cc1cnc(Nc2ccc(N3CCC(N4CCN(C)CC4)CC3)c(CC)c2)nc1Nc1ccc2nccnc2c1S(C)(=O)=O [III-14]
50 to 500 | 50 to 500 | 50 to 500 | 50 to 500 | 50 to 500 | 50 to 500 | C=Cc1cnc(Nc2cc(C3CC3)c(N3CCC(N4CCN(C)CC4)CC3)cc2OC)nc1Nc1ccc2nccnc2c1S(=O)(=O)C(C)C [III-21]
50 to 500 | 50 to 500 | 50 to 500 | 50 to 500 | 50 to 500 | 50 to 500 | C=Cc1cnc(Nc2cc(C(C)C)c(N3CCC(N4CCN(C)CC4)CC3)cc2OC)nc1Nc1ccc2nccnc2c1P(C)(C)=O [Compound I-16]
50 to 500 | ≤ 50 | ≤ 50 | ≤ 50 | ≤ 50 | ≤ 50 | C=Cc1cnc(Nc2ccc(N3CCC(N4CCN(C)CC4)CC3)c(CC)c2)nc1Nc1ccc2nccnc2c1NS(C)(=O)=O [II-38]
50 to 500 | 50 to 500 | 50 to 500 | 50 to 500 | 50 to 500 | 50 to 500 | C=Cc1cnc(Nc2cc(CC)c(N3CCC(N4CCN(C)CC4)CC3)cc2OC)nc1Nc1ccc2nccnc2c1N(C)S(=O)(=O)C(F)(F)F [II-8]
500 to 2500 | 50 to 500 | 50 to 500 | 500 to 2500 | 50 to 500 | 500 to 2500 | C=Cc1cnc(Nc2cc(C)c(N3CCC(N4CCN(C)CC4)CC3)cc2OC)nc1Nc1ccc2nccnc2c1S(=O)(=O)NC(C)C [IV-17]
≤ 50 | ≤ 50 | ≤ 50 | ≤ 50 | ≤ 50 | ≤ 50 | C=Cc1cnc(Nc2cc(CC)c(N3CCC(N4CCN(C)CC4)CC3)cc2OC)nc1Nc1ccc2nccnc2c1P(C)(C)=O [Compound I-1]
500 to 2500 | 500 to 2500 | 500 to 2500 | 500 to 2500 | 50 to 500 | 500 to 2500 | C=Cc1cnc(Nc2cc(CC)c(N3CCC(N4CCN(C)CC4)CC3)cc2OC(F)(F)F)nc1Nc1ccc2nccnc2c1S(C)(=O)=O [III-5]
500 to 2500 | 50 to 500 | 500 to 2500 | 50 to 500 | 50 to 500 | 50 to 500 | C=Cc1cnc(Nc2cc3c(cc2OC(F)(F)F)CCN(C)C3)nc1Nc1ccc2nccnc2c1N(C)S(C)(=O)=O [II-76]
500 to 2500 | 50 to 500 | 50 to 500 | 50 to 500 | 50 to 500 | 50 to 500 | C=Cc1cnc(Nc2cc3c(cc2F)CCN(C)C3)nc1Nc1ccc2nccnc2c1P(C)(C)=O [Compound I-23]
50 to 500 | ≤ 50 | 50 to 500 | ≤ 50 | ≤ 50 | ≤ 50 | C=Cc1cnc(Nc2ccc3c(c2)C(C)CN(C)CC3)nc1Nc1ccc2nccnc2c1N(C)S(C)(=O)=O (stereo not drawn) [II-78]
≤ 50 | 50 to 500 | 50 to 500 | 50 to 500 | ≤ 50 | ≤ 50 | C=Cc1cnc(Nc2cc(CC)c(N3CCC(N4CCNCC4)CC3)cc2OC)nc1Nc1ccc2nccnc2c1N(C)S(C)(=O)=O [II-52]
500 to 2500 | 500 to 2500 | 50 to 500 | 50 to 500 | 50 to 500 | 50 to 500 | C=Cc1cnc(Nc2cc(C3CC3)c(N3CCC(N4CCN(C)CC4)CC3)cc2OC)nc1Nc1ccc2nccnc2c1S(C)(=O)=O [III-12]
50 to 500 | ≤ 50 | ≤ 50 | ≤ 50 | ≤ 50 | ≤ 50 | C=Cc1cnc(Nc2cc(CC)c(N3CCC(N4CCN(C)CC4)CC3)cc2OC)nc1Nc1ccc2nccnc2c1N(C1CC1)S(C)(=O)=O [II-14]
≤ 50 | ≤ 50 | ≤ 50 | ≤ 50 | ≤ 50 | ≤ 50 | C=Cc1cnc(Nc2cc(CC)c(N3CCN(C)CC3)cc2OC)nc1Nc1ccc2nccnc2c1P(C)(C)=O [Compound I-4]
≤ 50 | ≤ 50 | ≤ 50 | ≤ 50 | ≤ 50 | ≤ 50 | C=Cc1cnc(Nc2cc(CC)c(N3CCC(N4CCN(C)CC4)CC3)cc2OC)nc1Nc1ccc2nccnc2c1N(CC)S(C)(=O)=O [II-12]
≤ 50 | ≤ 50 | ≤ 50 | ≤ 50 | ≤ 50 | ≤ 50 | C=Cc1cnc(Nc2cc(CC)c(N3CCC(N4CCN(C)CC4)CC3)cc2OC)nc1Nc1ccc2nccnc2c1N(C)S(C)(=O)=O [II-1]
500 to 2500 | 500 to 2500 | 50 to 500 | 500 to 2500 | 50 to 500 | 50 to 500 | C=Cc1cnc(Nc2cc(CC)c(N3CCC(N(C)C)CC3)cc2OC)nc1Nc1ccc2nccnc2c1S(C)(=O)=O [III-2]
